Entries after “also recorded” stand apart in the source; their conditions may differ. Structures can show the parent of a compound that is named as a salt.
Columns and labels:
[1] = tested on: All cell lines; assay: Monolayer growth inhibition, crystal violet assay, range over all cell lines; assay type: cell-based; settings: 120 h; range of IC50 over all cell lines of the table; read-out: IC50 Values - Crystal Violet (5 Days), Range, All
From the text: (§1) In all instances a single dose was given on day 1 of the experiment. […] Complete (100%) growth suppression was achievable with several of the compounds in multiple different cell lines.

[2] = tested on: phosphorylated Y-box binding protein-1 (YB-1) at serine 102 (P-YB-1S102); assay: Immunoblotting of cell signalling, loss of P-YB-1 in MDA-MB-231 cells; settings: MDA-MB-231 cells, 0.01-1 uM, 96 hrs
Experimental: Following desired experimental conditions, breast cancer cell lines grown and treated in 6 well plates or 100 mm culture dishes (Grenier Bio-One) were placed on ice and the supernatant from each well was removed and the cells were washed in cold PBS. Following removal of PBS, cells were exposed to radioimmunoprecipitation assay (RIPA) buffer (50 mM Tris-HCl (pH 8), 150 mM NaCl, 1% NP-40, 0.5% sodium deoxycholate, 0.1% SDS; Fisher Scientific) supplemented with 1% phosphatase inhibitor (Fisher Scientific) and 1% protease inhibitor (Fisher Scientific) for 10 minutes. Samples were transferred to eppendorf tubes, vortexed and then centrifuged at 14 000 rpm for 10 minutes. Supernatants were collected as whole cell lysates.
To begin, the protein content of the lysates was measured using the Bicinchoninic Acid (BCA) Protein Assay Kit (Pierce), which included a protein standard curve generated with bovine serum albumin. Appropriate volumes of samples and loading buffer (50 mM Tris-HCl (pH 6.8), 2% SDS, 10% glycerol, 1% j-mercaptoethanol, 12.5 mM EDTA, 0.02% bromophenol blue) were mixed, ensuring that equal amounts of protein were loaded. For the majority of experiments in this study, 30 μg of protein per well was loaded. Samples were then resolved on SDS-PAGE (polyacrylamide gel electrophoresis) using various percentages of acrylamide gels (8%-12%), depending on the proteins of interest. SDS-PAGE was run in SDS running buffer (25 mM Tris, 192 mM glycine, 0.1% SDS) and then transferred to nitrocellulose membranes (Bio-Rad) in transfer buffer (48 mM Tris, 39 mM glycine, 20% (v/v) methanol) at 100 volts for 90 minutes at room temperature. Immunoblots were then blocked in 5% skim milk in tris-buffered saline with 0.1% Tween-20 (TBS-T; 50 mM Tris-HCl, pH 7.5, 150 mM NaCl, 0.1% (v/v) Tween-20 (Fisher Scientific)) for 1 to 2 hours. Immunoblots were then incubated with selected primary antibodies diluted in TBS-T with 0.1% gelatin (Bio-Rad) and 0.05% sodium azide (Alfa Aesar) overnight. Following washes with TBT-T 4 times for 8 to 10 minutes, immunoblots were incubated with appropriate secondary antibodies conjugated to horseradish peroxidise (Cell Signalling Technology) diluted in TBS-T plus 5% skim milk at a ratio of 1:5000 for 2 hours at room temperature. After an additional round of washes in TBS-T, immunoblots were exposed to combined enhanced chemiluminescence (ECL) reagents (Fisher Scientific) for 1 minute and developed using ChemiDoc MP Imaging System (Bio-Rad). For certain immunoblots, bands of proteins of interest were scanned and band intensity ratios were determined by densitometric analysis (ImageJ). […] Total YB-1 was used as a loading control (1:5000 Abcam). […] To assess whether cells are actively undergoing cell death, the activity of poly ADP ribose polymerase (PARP) (1:1000 CST) was also measured using the immunoblotting method.

[3] = tested on: MDA-MB-468 cells; assay: Soft agar growth inhibition assay; assay type: cell-based, Human; settings: Homo sapiens; MDA-MB-468 (TNBC), 14-22 days
[4] = tested on: 4T1 cells; assay: Monolayer growth inhibition, crystal violet assay; assay type: cell-based; settings: Mus musculus; 4T1 (TNBC), 5 days, single dose on day 1
From the text: (§2) In all instances a single dose was given on day 1 of the experiment.

[5] = tested on: SUM149 cells; assay: Monolayer growth inhibition, crystal violet assay; assay type: cell-based; settings: Homo sapiens; SUM149 (TNBC, BRCA Mutant), 5 days, single dose on day 1
From the text: as §2

[6] = tested on: PC3 cells; assay: Monolayer growth inhibition, crystal violet assay; assay type: cell-based; settings: Homo sapiens, PC-3; PC3 (Prostate), 5 days, single dose on day 1
From the text: as §2

[7] = tested on: MDA-MB-231 cells; assay: Monolayer growth inhibition, crystal violet assay; assay type: cell-based; settings: Homo sapiens; MDA-MB-231 (TNBC), 5 days, single dose on day 1
From the text: as §2

[8] = tested on: SUM149-PTXR cells; assay: Monolayer growth inhibition, crystal violet assay; assay type: cell-based; settings: Homo sapiens; SUM149-PTXR (TNBC, BRCA Mutant), 5 days, single dose on day 1
From the text: as §2

[9] = tested on: HCC1143 cells; assay: Monolayer growth inhibition, crystal violet assay; assay type: cell-based; settings: Homo sapiens; HCC1143 (TNBC), 5 days, single dose on day 1
From the text: as §2

[10] = tested on: MDA-MB-435 cells; assay: Monolayer growth inhibition, crystal violet assay; assay type: cell-based; settings: Homo sapiens; MDA-MB-435 (Melanoma), 5 days, single dose on day 1
From the text: as §2

[11] = tested on: JIMT-1 cells; assay: Monolayer growth inhibition, crystal violet assay; assay type: cell-based; settings: Homo sapiens; JIMT-1 (HER2), 5 days, single dose on day 1
From the text: as §1

[12] = tested on: MDA-MB-468 cells; assay: Monolayer growth inhibition, crystal violet assay; assay type: cell-based; settings: Homo sapiens; MDA-MB-468 (TNBC), 5 days, single dose on day 1
From the text: as §1

[13] = tested on: T47D cells; assay: Monolayer growth inhibition, crystal violet assay; assay type: cell-based; settings: Homo sapiens; T47D (ER/PR), 5 days, single dose on day 1
From the text: as §1

[14] = tested on: HCC1937 cells; assay: Monolayer growth inhibition, crystal violet assay; assay type: cell-based; settings: Homo sapiens; HCC1937 (TNBC, BRCA Mutant), 5 days, single dose on day 1
From the text: as §1

[15] = tested on: MDA-MB-231 cells; assay: Soft agar growth inhibition assay; assay type: cell-based; settings: Homo sapiens
[16] = tested on: 4T1 cells; assay: Monolayer growth inhibition, Alamar blue assay; assay type: cell-based; settings: Mus musculus; 4T1 (TNBC), 5 days, single dose on day 1
From the text: as §2

[17] = tested on: SUM149 cells; assay: Monolayer growth inhibition, Alamar blue assay; assay type: cell-based; settings: Homo sapiens; SUM149 (TNBC, BRCA Mutant), 5 days, single dose on day 1
From the text: as §2

[18] = tested on: PC3 cells; assay: Monolayer growth inhibition, Alamar blue assay; assay type: cell-based; settings: Homo sapiens, PC-3; PC3 (Prostate), 5 days, single dose on day 1
From the text: as §2

[19] = tested on: JIMT-1 cells; assay: Monolayer growth inhibition, Alamar blue assay; assay type: cell-based; settings: Homo sapiens; JIMT-1 (HER2), 5 days, single dose on day 1
From the text: as §2

[20] = tested on: MDA-MB-468 cells; assay: Monolayer growth inhibition, Alamar blue assay; assay type: cell-based; settings: Homo sapiens; MDA-MB-468 (TNBC), 5 days, single dose on day 1
From the text: as §2

[21] = tested on: MDA-MB-231 cells; assay: Monolayer growth inhibition, Alamar blue assay; assay type: cell-based; settings: Homo sapiens; MDA-MB-231 (TNBC), 5 days, single dose on day 1
From the text: as §2

[22] = tested on: HCC1937 cells; assay: Monolayer growth inhibition, Alamar blue assay; assay type: cell-based; settings: Homo sapiens; HCC1937 (TNBC, BRCA Mutant), 5 days, single dose on day 1
From the text: as §2

[23] = tested on: HCC1143 cells; assay: Monolayer growth inhibition, Alamar blue assay; assay type: cell-based; settings: Homo sapiens; HCC1143 (TNBC), 5 days, single dose on day 1
From the text: as §2

[24] = tested on: MDA-MB-435 cells; assay: Monolayer growth inhibition, Alamar blue assay; assay type: cell-based; settings: Homo sapiens; MDA-MB-435 (Melanoma), 5 days, single dose on day 1
From the text: as §2

[25] = tested on: All cell lines; assay: Monolayer growth inhibition, Alamar blue assay, range over all cell lines; assay type: cell-based; settings: 120 h; range of IC50 over all cell lines of the table; read-out: IC50 Values - Alamar Blue (5 Days), Range, All
From the text: as §2

[26] = tested on: MDA-MB-231 cells; assay: Immuno-oncology gene expression (HLA-DRA, CIITA, CD274 mRNA); assay type: cell-based, Human; settings: Compound 16 2 or 4 uM, Compound 18 1, 2, or 4 uM
From the text: A key feature of cancer is low immunogenicity. This can occur by several mechanisms that allow the cells to escape immune recognition. […] HLA-DRA is a member of MHC-II genes and CIITA is the master regulator of MHC II transcription. Thus it was surprising that CIITA, which would be expected to regulate MHC II gene expression, was not altered by RSK inhibition. […] HLA-DRA is important for immune recognition while PD-L1 is involved in immune checkpoints.

[27] = tested on: 4T1 cells; assay: Soft agar growth inhibition assay; assay type: cell-based; settings: Mus musculus
Experimental: Two agar (Alfa Aesar) solutions (0.8% w/v and 0.4% w/v) were prepared in ultrapure water. The 0.8% agar solution was mixed in equal volumes with 2× media previously prepared from powder (Life Technologies) following the manufacturer's instructions and filter sterilized. The 0.8% agar and media solution was added to 24 well plates (Mandel Scientific) at 500 μl per well. The plates were placed in a humidified incubator at 37° C. with 5% CO2. Next, the 0.4% agar solution was mixed in equal volumes with 2× media. Breast cancer cell lines were added to this solution to achieve a final concentration of 2×10^4 cells per well and […] was added to each well on top of the bottom agar and media layer. […] The plates were returned to the incubator for 10-32 days, with a re-dosing of compounds or DMSO every 7 days. After 10-32 days, colonies were counted in 3 different fields of view for each well.
Representative compounds described herein were tested in the soft agar growth inhibition assay against the 4T1 breast cancer cell line.

[28] = tested on: CD34+ cells; assay: Colony forming unit hematopoietic stem cell assay; assay type: cell-based, human; settings: for IC50: Homo sapiens, Hematopoietic stem cell, CD34+ cells from peripheral blood, read-out: CD34+ (PB) IC50; for Therapeutic Window: ratio IC50 against CD34+ cells and MDA-MB-231 cells (SA)
Experimental: The hematopoietic colony forming cell assay was conducted based on a protocol outlined by StemCell Technologies. […] Following the addition of CD34^+ cells isolated from human cord blood or peripheral blood (StemCell Technologies) at a final concentration of 5×10^2 cells per dish, the tubes were vortexed and allowed to stand for 5 minutes at room temperature. Next, the MethoCult mixtures were dispensed into 35 mm dishes (Corning Incorporated) through blunt end needles (StemCell Technologies) and 5 ml syringes (BD Biosciences) at a volume of 1.1 ml per dish. The medium was evenly distributed across the surface of each dish by gentle tilting and rotation. The dishes were then placed in a 100 mm culture dish (Grenier Bio-One) containing additional 35 mm dishes with sterile water to maintain humidity. […] The number of myeloid and erythroid derived colonies in both the treated and control dishes were counted and compared.

[29] = tested on: SUM149-PTXR cells; assay: Monolayer growth inhibition, Alamar blue assay; assay type: cell-based, Human; settings: Homo sapiens; SUM149-PTXR (TNBC, BRCA Mutant), 5 days, single dose on day 1
From the text: as §2

[30] = tested on: T47D cells; assay: Monolayer growth inhibition, Alamar blue assay; assay type: cell-based, Human; settings: Homo sapiens; T47D (ER/PR), 5 days, single dose on day 1
From the text: as §2

[31] = tested on: P-YB-1 in MDA-MB-231 xenografts; assay: Pharmacodynamics, P-YB-1 signalling in MDA-MB-231 xenograft tumors (immunoblotting); settings: 100 mg/kg BID PO for three days
Experimental: Following desired experimental conditions, breast cancer cell lines grown and treated in 6 well plates or 100 mm culture dishes (Grenier Bio-One) were placed on ice and the supernatant from each well was removed and the cells were washed in cold PBS. Following removal of PBS, cells were exposed to radioimmunoprecipitation assay (RIPA) buffer (50 mM Tris-HCl (pH 8), 150 mM NaCl, 1% NP-40, 0.5% sodium deoxycholate, 0.1% SDS; Fisher Scientific) supplemented with 1% phosphatase inhibitor (Fisher Scientific) and 1% protease inhibitor (Fisher Scientific) for 10 minutes. Samples were transferred to eppendorf tubes, vortexed and then centrifuged at 14 000 rpm for 10 minutes. Supernatants were collected as whole cell lysates. For mouse tumour tissues, each sample was place in a 35 mm culture dish with complete RIPA lysis buffer. […]
To begin, the protein content of the lysates was measured using the Bicinchoninic Acid (BCA) Protein Assay Kit (Pierce), which included a protein standard curve generated with bovine serum albumin. […] For certain immunoblots, bands of proteins of interest were scanned and band intensity ratios were determined by densitometric analysis (ImageJ). […] To assess whether cells are actively undergoing cell death, the activity of poly ADP ribose polymerase (PARP) (1:1000 CST) was also measured using the immunoblotting method.
Cell signalling was evaluated by immunoblotting. […]

[32] = Solubility assessment, 20 mg/ml solution; assay type: physicochemical; settings: hydrochloride salt
Summary of the method: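 Compounds from 100 mM DMSO stocks diluted to 20 mg/ml in DMEM with FBS and penicillin/streptomycin, vortexed and checked visually for precipitate. One compound instead diluted to 20 mg/ml in phosphate-buffered saline, solution pH 2.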

[33] = tested on: MDA-MB-231 cells; assay: Combination with paclitaxel, monolayer growth (crystal violet); settings: MDA-MB-231 cells + 0.3 nM PTX, 5 days
Experimental: 1×10^3 cells per well were seeded for a final volume of 200 μl per well and plates were incubated for 5 days at 37° C. in a humidified incubator with 5% CO2. Following the incubation period, cell survival was quantified by Alamar blue assay (Life Technologies). Briefly, media from each well was replaced with 100 μl of phosphate buffer saline (PBS, Life Technologies) and cells were incubated with 5% Alamar blue, which incorporates a propriety redox indicator that changes colour in response to metabolic activity, for up to 2 hours. During this period of incubation, the absorbance at 570 nm and 600 nm was measured at various time points, depending on the cell line or sample. Percent survival was calculated by comparing the absorbance ratio of the test well to the control well multiplied by 100%, as indicated in the following formula:
Following, plates were prepared for crystal violet staining. To begin, 100 μl of an 8% formaldehyde (Alfa Aesar) solution diluted in PBS was added to each well and plates were stored at 4° C. overnight. Next, the formaldehyde solution was discarded and the wells were washed with 200 μl ultrapure water per well three times. Following, 50 μl of a 0.5% crystal violet solution (0.5% w/v crystal violet (Alfa Aesar), 25% methanol (VWR)) was added to each well and incubated at room temperature for 20 minutes. The crystal violet solution was discarded and wells were washed with 200 μl ultrapure water per well three times. Next, 50 μl of a 5% sodium dodecyl sulphate (SDS) (Alfa Aesar) was added to each well and the absorbance at 590 nm was measured.

[34] = MDA-MB-231, growth in soft agar (SA), read-out: MDA-MB-231 IC50 (SA)
[35] = MDA-MB-231 (TNBC), 14-22 days, read-out: IC50 Values - Soft Agar (14-22 Days)

Row | SMILES | IC50 [11] | IC50 [12] | IC50 [13] | IC50 [14] | IC50 [15, 34] | IC50 [15, 35] | IC50 [17] | IC50 [18] | IC50 [19] | IC50 [22] | IC50 [23] | IC50 [24] | IC50 [28] | Therapeutic Window [28] | IC50 [29] | IC50 [30] | also measured
1 | C[C@@H]1CNC(=O)c2cc3ccc(C(=O)Nc4cnn(Cc5cccc(N)c5)c4)nc3n21 [Compound 16, (R)—N-(1-(3-aminobenzyl)-1H-pyrazol-4-yl)-9-methyl-6-oxo-6,7,8,9-tetrahydropyrido[3′,2′:4,5]pyrrolo[1,2-a]pyrazine-2-carboxamide] | 13.3 ± 2.4 µM | 1.9 ± 0.3 µM | 3.8 ± 0.7 µM | 12 ± 5.3 µM | 0.2 µM | 0.2 ± 0.1 µM | 3.4 ± 1.8 µM | 6.6 ± 2.3 µM | 16.3 ± 1 µM | 17.4 ± 3 µM | 7 ± 3 µM | 0.9 ± 0.5 µM | > 20 µM | >100X | 2.5 ± 0.4 µM | 4.7 ± 1.7 µM | IC50 [1]: 1.2 to 13.3 µM; Loss of P-YB-1 [2]: dose dependent loss of P-YB-1; IC50 [3]: 1.1 ± 0.3 µM; IC50 [4]: 4.5 ± 0.8 µM; IC50 [5]: 2.8 ± 0.9 µM; IC50 [6]: 3.7 ± 1.3 µM; IC50 [7]: 2.7 ± 1.3 µM; IC50 [8]: 3.5 ± 1.2 µM; IC50 [9]: 5 ± 1.1 µM; IC50 [10]: 1.2 ± 0.6 µM; IC50 [16]: 5.4 ± 0.9 µM; IC50 [20]: 2.7 ± 0.5 µM; IC50 [21]: 8.7 ± 1.8 µM; IC50 [25]: 0.9 to 17.4 µM; CD274 (gene encoding PD-L1) levels [26]: reduced levels of CD274; HLA-DRA mRNA [26]: elevated levels of HLA-DRA mRNA; mRNA expression of CIITA [26]: little effect; IC50 ([27]; 240 h, 4T1, 10 days, read-out: IC50 Values, 10 Days, Soft Agar): 3.3 µM; IC50 ([27]; 4T1 (TNBC), 14-22 days, read-out: IC50 Values - Soft Agar (14-22 Days)): 3.5 ± 0.3 µM
2 | C[C@@H]1CNC(=O)c2cc3ccc(C(=O)Nc4cnn(Cc5ccc(N)cc5)c4)nc3n21 [Compound 25, (R)—N-(1-(4-aminobenzyl)-1H-pyrazol-4-yl)-9-methyl-6-oxo-6,7,8,9-tetrahydropyrido[3′,2′:4,5]pyrrolo[1,2-a]pyrazine-2-carboxamide hydrochloride salt] | 15.2 ± 2.6 µM | 2 ± 0.4 µM | 3.1 ± 0.1 µM | 8.4 ± 1.9 µM | 0.2 µM | 0.2 ± 0.1 µM | 10.4 ± 3.5 µM | 8.5 ± 0.8 µM | 19.9 ± 6.5 µM | 13.7 ± 3.8 µM | 5.1 ± 0.3 µM | 0.9 ± 0.1 µM | > 20 µM | – | 5.2 ± 4.2 µM | 8.9 ± 0.8 µM | Tumors with reduced cell signaling through loss of P-YB-1 [31]: 3/3; Solubility, 20 mg/ml Solution ([32]; 100 mM in DMSO diluted in DMEM growth media to 20 mg/ml): Soluble; also recorded: superior solubility; pH of 20 mg/ml solution ([32]; DMSO stock diluted in DMEM, pH test strips): 2; Therapeutic Window ([28]; hydrochloride salt): >100X
3 | CC(=O)O[C@H]1C(=O)[C@@]2(C)[C@H]([C@H](OC(=O)c3ccccc3)[C@]3(O)C[C@H](OC(=O)[C@H](O)[C@@H](NC(=O)c4ccccc4)c4ccccc4)C(C)=C1C3(C)C)[C@]1(OC(C)=O)CO[C@@H]1C[C@@H]2O [Taxol, paclitaxel, reference compound] | – | – | – | – | 0.0014 µM | – | – | – | – | – | – | – | 0.0097 µM | 6.9X | – | – | % Survival [33]: MDA-MB-231 cells + 0.3 nM PTX: % Survival = 47.7%

Reference: patent publication US10081632B2, “Substituted tetrahydropyrido[3′,2′:4,5]pyrrolo[1,2-α]pyrazine-2-carboxamides as RSK inhibitors” (Phoenix Molecular Designs, priority 2016, dated 2018)
